# From the supplement of paper PMC10307832
# Key:
# Test in all cases: relative viability (nuclei count vs DMSO), 5 days (fraction); higher = more cells survive
# NCI-H1666 = test system: NCI-H1666
# Method in brief: (§1)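 Lung cancer cell lines were seeded in 1536-well plates and dosed by pin tool the next day, with either a single drug or a fixed anchor-drug dose combined with five library-drug doses (not always all listed) spaced in √10 steps. Five days later, one step fixed the cells and stained their nuclei (final 0.05% Triton X-100, 1% formaldehyde, 1 ug/ml Hoechst), and nuclei were counted on 4× images. Relative viability is the nuclei count in treated wells divided by the count in vehicle wells, and each value is the median of duplicate plates.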
# LOU-NH91 = test system: LOU-NH91
# Method in brief: as §1
# NCI-H2347 = test system: NCI-H2347
# Method in brief: as §1
# NCI-H23 = test system: NCI-H23
# Method in brief: as §1
# HCC-44 = test system: HCC-44
# Method in brief: as §1
# BEN = test system: BEN
# Method in brief: as §1
# NCI-H2126 = test system: NCI-H2126
# Method in brief: as §1
# NCI-H650 = test system: NCI-H650
# Method in brief: as §1
# NCI-H2087 = test system: NCI-H2087
# Method in brief: as §1
# 201T = test system: 201T
# Method in brief: as §1
# NCI-H2023 = test system: NCI-H2023
# Method in brief: as §1
# LCLC-103H = test system: LCLC-103H
# Method in brief: as §1
# NCI-H2009 = test system: NCI-H2009
# Method in brief: as §1
# HARA = test system: HARA
# Method in brief: as §1
# NCI-H1993 = test system: NCI-H1993
# Method in brief: as §1
# NCI-H838 = test system: NCI-H838
# Method in brief: as §1
# NCI-H441 = test system: NCI-H441
# Method in brief: as §1
# NCI-H3122 = test system: NCI-H3122
# Method in brief: as §1
# NCI-H647 = test system: NCI-H647
# Method in brief: as §1
# NCI-H727 = test system: NCI-H727
# Method in brief: as §1
# NCI-H596 = test system: NCI-H596
# Method in brief: as §1
# EMC-BAC-2 = test system: EMC-BAC-2
# Method in brief: as §1
smiles,measurement,setting,value
Clc1ccc(Nc2nnc(Cc3ccncc3)c3ccccc23)cc1 [Vatalanib] + CC(C)C[C@H](NC(=O)[C@H](Cc1ccccc1)NC(=O)c1cnccn1)B(O)O [Bortezomib] (partner 0.002 µM),relative viability,NCI-H1666; first compound 0.04 µM,0.795
same,relative viability,NCI-H1666; first compound 0.1265 µM,0.701
same,relative viability,NCI-H1666; first compound 0.4 µM,0.851
same,relative viability,NCI-H1666; first compound 1.265 µM,0.67
same,relative viability,NCI-H1666; first compound 4 µM,0.733
same,relative viability,LOU-NH91; first compound 0.04 µM,0.491
same,relative viability,LOU-NH91; first compound 0.1265 µM,0.43
same,relative viability,LOU-NH91; first compound 0.4 µM,0.464
same,relative viability,LOU-NH91; first compound 1.265 µM,0.493
same,relative viability,LOU-NH91; first compound 4 µM,0.468
same,relative viability,NCI-H2347; first compound 0.1265 µM,0.898
same,relative viability,NCI-H2347; first compound 0.4 µM,0.855
same,relative viability,NCI-H2347; first compound 1.265 µM,0.973
same,relative viability,NCI-H2347; first compound 4 µM,0.865
same,relative viability,NCI-H23; first compound 0.04 µM,0.846
same,relative viability,NCI-H23; first compound 0.1265 µM,1.03
same,relative viability,NCI-H23; first compound 0.4 µM,1.14
same,relative viability,NCI-H23; first compound 1.265 µM,0.865
same,relative viability,NCI-H23; first compound 4 µM,1.08
same,relative viability,HCC-44; first compound 0.04 µM,0.92
same,relative viability,HCC-44; first compound 0.1265 µM,0.855
same,relative viability,HCC-44; first compound 0.4 µM,0.903
same,relative viability,HCC-44; first compound 1.265 µM,0.828
same,relative viability,HCC-44; first compound 4 µM,0.857
same,relative viability,BEN; first compound 0.04 µM,0.851
same,relative viability,BEN; first compound 0.1265 µM,0.682
same,relative viability,BEN; first compound 0.4 µM,0.906
same,relative viability,BEN; first compound 1.265 µM,0.665
same,relative viability,BEN; first compound 4 µM,0.806
same,relative viability,NCI-H2126; first compound 0.04 µM,1.06
same,relative viability,NCI-H2126; first compound 0.1265 µM,1.14
same,relative viability,NCI-H2126; first compound 0.4 µM,1.17
same,relative viability,NCI-H2126; first compound 1.265 µM,1.1
same,relative viability,NCI-H2126; first compound 4 µM,1.13
same,relative viability,NCI-H650; first compound 0.04 µM,0.891
same,relative viability,NCI-H650; first compound 0.1265 µM,0.736
same,relative viability,NCI-H650; first compound 1.265 µM,0.6
same,relative viability,NCI-H650; first compound 4 µM,0.812
same,relative viability,NCI-H2087; first compound 0.04 µM,1.05
same,relative viability,NCI-H2087; first compound 0.1265 µM,0.744
same,relative viability,NCI-H2087; first compound 0.4 µM,0.92
same,relative viability,NCI-H2087; first compound 1.265 µM,0.917
same,relative viability,NCI-H2087; first compound 4 µM,0.753
same,relative viability,201T; first compound 0.04 µM,1.08
same,relative viability,201T; first compound 0.1265 µM,1.11
same,relative viability,201T; first compound 0.4 µM,1.11
same,relative viability,201T; first compound 1.265 µM,1.08
same,relative viability,201T; first compound 4 µM,1.13
same,relative viability,NCI-H2023; first compound 0.04 µM,1.02
same,relative viability,NCI-H2023; first compound 0.1265 µM,0.837
same,relative viability,NCI-H2023; first compound 0.4 µM,1.02
same,relative viability,NCI-H2023; first compound 1.265 µM,0.946
same,relative viability,NCI-H2023; first compound 4 µM,0.695
same,relative viability,LCLC-103H; first compound 0.04 µM,1.07
same,relative viability,LCLC-103H; first compound 0.1265 µM,1.12
same,relative viability,LCLC-103H; first compound 0.4 µM,1.07
same,relative viability,LCLC-103H; first compound 1.265 µM,1.01
same,relative viability,LCLC-103H; first compound 4 µM,1.13
same,relative viability,NCI-H2009; first compound 0.04 µM,1.19
same,relative viability,NCI-H2009; first compound 0.1265 µM,0.891
same,relative viability,NCI-H2009; first compound 0.4 µM,1.14
same,relative viability,NCI-H2009; first compound 1.265 µM,0.949
same,relative viability,NCI-H2009; first compound 4 µM,0.984
same,relative viability,HARA; first compound 0.04 µM,0.71
same,relative viability,HARA; first compound 0.1265 µM,0.953
same,relative viability,HARA; first compound 0.4 µM,1.23
same,relative viability,HARA; first compound 1.265 µM,1.12
same,relative viability,HARA; first compound 4 µM,1.06
same,relative viability,NCI-H1993; first compound 0.04 µM,1.11
same,relative viability,NCI-H1993; first compound 0.1265 µM,1.05
same,relative viability,NCI-H1993; first compound 0.4 µM,1.02
same,relative viability,NCI-H1993; first compound 1.265 µM,1.01
same,relative viability,NCI-H1993; first compound 4 µM,0.869
same,relative viability,NCI-H838; first compound 0.04 µM,0.973
same,relative viability,NCI-H838; first compound 0.1265 µM,0.99
same,relative viability,NCI-H838; first compound 0.4 µM,0.805
same,relative viability,NCI-H838; first compound 1.265 µM,0.68
same,relative viability,NCI-H838; first compound 4 µM,0.798
same,relative viability,NCI-H441; first compound 0.04 µM,0.421
same,relative viability,NCI-H441; first compound 0.1265 µM,0.444
same,relative viability,NCI-H441; first compound 0.4 µM,0.52
same,relative viability,NCI-H441; first compound 1.265 µM,0.448
same,relative viability,NCI-H441; first compound 4 µM,0.448
same,relative viability,NCI-H3122; first compound 0.04 µM,1.01
same,relative viability,NCI-H3122; first compound 0.1265 µM,1.06
same,relative viability,NCI-H3122; first compound 0.4 µM,1.08
same,relative viability,NCI-H3122; first compound 1.265 µM,1.07
same,relative viability,NCI-H3122; first compound 4 µM,1.01
same,relative viability,NCI-H647; first compound 0.04 µM,1.05
same,relative viability,NCI-H647; first compound 0.1265 µM,0.971
same,relative viability,NCI-H647; first compound 0.4 µM,1.07
same,relative viability,NCI-H647; first compound 1.265 µM,0.943
same,relative viability,NCI-H647; first compound 4 µM,1.06
same,relative viability,NCI-H727; first compound 0.04 µM,0.908
same,relative viability,NCI-H727; first compound 0.1265 µM,0.776
same,relative viability,NCI-H727; first compound 0.4 µM,0.827
same,relative viability,NCI-H727; first compound 1.265 µM,0.854
same,relative viability,NCI-H727; first compound 4 µM,0.706
same,relative viability,NCI-H596; first compound 0.04 µM,1.2
same,relative viability,NCI-H596; first compound 0.1265 µM,1
same,relative viability,NCI-H596; first compound 0.4 µM,1.01
same,relative viability,NCI-H596; first compound 1.265 µM,1.11
same,relative viability,NCI-H596; first compound 4 µM,1.01
same,relative viability,EMC-BAC-2; first compound 0.04 µM,1.04
same,relative viability,EMC-BAC-2; first compound 0.1265 µM,1.09
same,relative viability,EMC-BAC-2; first compound 0.4 µM,1.12
same,relative viability,EMC-BAC-2; first compound 1.265 µM,1.01
same,relative viability,EMC-BAC-2; first compound 4 µM,1.05
